In doi:10.1101/2021.06.01.446583v1 (biorxiv, 2021) one finds Km data, which are given here for 2 compounds.

Assay [1] concerns Fp231. Nature of the assay: CNP release at […] nm, Michaelis-Menten non-linear fit. Format: biochemical, uncultured Paraglaciecola sp. The note with it: 0.1-4 mM substrate, 2 nM enzyme.
Assay [2] concerns Fp231. Briefly: fucose release by HPAEC-PAD, Michaelis-Menten non-linear fit. In kind it is biochemical, uncultured Paraglaciecola sp. The conditions noted are these: 0.1-4 mM substrate, 2 nM enzyme.

What is called Km is the concentration of substrate that gives half-maximal velocity. As to `C[C@@H]1O[C@@H](Oc2ccc([N+](=O)[O-])cc2Cl)[C@@H](O)[C@H](O)[C@@H]1O` [CNP-Fuc, 2-chloro-4-nitrophenyl-α-L-fucopyranoside], the Michaelis constant (Km) with Fp231 [1] came out at 140 ± 10 µM.

`CC(=O)N[C@H]1C(O)O[C@H](CO)[C@@H](O[C@@H]2O[C@@H](C)[C@@H](O)[C@@H](O)[C@@H]2O)[C@@H]1O` (stereo partly drawn) [Fuc(α1,4)GlcNAc]: in the assay on Fp231 [2], the Michaelis-Menten constant (Km) worked out at 660 ± 50 µM.
